Legend:
Format in all cases: cell-based
[1] = test system: mTOR-pS2481 in C2C12 cells; assay: mTOR-pS2481 immunoblot in C2C12 myoblasts; settings: continuous presence of aa/insulin
Description: (§1) Experiments were performed in particular in HeLa α Kyoto cells and C2C12 myoblasts. For inducible knock down of Raptor or TSC2, cells were transduced with lentivirus encoding the tetracycline-sensitive tTR-KRAB repressor and a DsRed reporter. Cells were subsequently transfected with lentivirus encoding the specific shRNA, and a GFP reporter, (pLVTH vector), both preferably under the control of tTR-KRAB. For lentivirus-mediated knock down of Rictor a pLKO.1-based short hairpin construct specific for Rictor (Addgene plasmid 1853), as well as a scrambled control sequence (Addgene plasmid 1864) can in particular be supplied from Addgene. […]
(§2) Gradual knockdowns of Raptor or TSC2 can preferably be established by induction with 5 μg/ml doxycycline (Calbiochem, Merck, Darmstadt, Germany) for 0, 1, 2, or 3 days. […] Protein concentrations can preferably be measured (Protein Assay Dye Reagent Concentrate, Bio-Rad, Hercules, Calif., USA) according to manufacturer's protocol. […] Whole cell lysates can for example be analyzed using SDS-PAGE gels. […]
(§3) HRP can for example be detected with the ECL Western Blotting Substrate or the SuperSignal West Femto reagent [Pierce Biotechnology (Thermo Scientific, Rockford, Ill. USA)], and the emitted light can in particular be detected and quantified with a chemiluminescence imaging analyzer (LAS4000mini; Fujifilm, Tokyo, Japan). […]

[2] = test system: mTOR-pS2481 (mTORC2 readout) in HeLa cells; assay: mTOR-pS2481 immunoblot of whole cell lysates, HeLa cells starved and induced with aa/insulin
Description: Experiments were performed in particular in HeLa α Kyoto cells and C2C12 myoblasts. For inducible knock down of Raptor or TSC2, cells were transduced with lentivirus encoding the tetracycline-sensitive tTR-KRAB repressor and a DsRed reporter. Cells were subsequently transfected with lentivirus encoding the specific shRNA, and a GFP reporter, (pLVTH vector), both preferably under the control of tTR-KRAB. For lentivirus-mediated knock down of Rictor a pLKO.1-based short hairpin construct specific for Rictor (Addgene plasmid 1853), as well as a scrambled control sequence (Addgene plasmid 1864) can in particular be supplied from Addgene. HeLa cells were transfected with viral supernatant twice as described previously and harvested 60 hours after transfection.
For calibration data sets, in particular HeLa cells can be starved for serum and amino acids by exchanging standard growth medium for Hank's Buffered Salt Solution (HBSS) (PAN Biotech GmbH, Aidenbach, Germany) over night to inhibit mTOR pathway activity. After 16 hours of starvation, mTOR signaling was restimulated with DMEM containing amino acids and supplemented with 100 nM insulin (Sigma Aldrich, St. Louis, Mo., USA).
Gradual knockdowns of Raptor or TSC2 can preferably be established by induction with 5 μg/ml doxycycline (Calbiochem, Merck, Darmstadt, Germany) for 0, 1, 2, or 3 days. Cells can be starved for 16 hours in HBSS and mTOR signaling was induced with DMEM (PAA, Pasching, Austria) supplemented with 100 nM insulin. […] Wortmannin or LY294002 can in particular be added 30 min prior to and during the stimulation with DMEM supplemented 100 nM insulin. Cells can for example be washed once with PBS and lysed with TNE lysis buffer [50 mM Tris HCL pH8.0, 150 mM NaCl, 1% v/v TritonX-100 (Calbiochem, Merck, Darmstadt, Germany), Complete (Roche, Mannheim, Germany), Phosphatase Inhibitor Cocktail 2, Phosphatase Inhibitor Cocktail 3 (both Sigma Aldrich, St. Louis, Mo., USA)]. Protein concentrations can preferably be measured (Protein Assay Dye Reagent Concentrate, Bio-Rad, Hercules, Calif., USA) according to manufacturer's protocol. Concentrations can for example be adjusted with lysis buffer. […] Whole cell lysates can for example be analyzed using SDS-PAGE gels. […]
HRP can for example be detected with the ECL Western Blotting Substrate or the SuperSignal West Femto reagent [Pierce Biotechnology (Thermo Scientific, Rockford, Ill. USA)], and the emitted light can in particular be detected and quantified with a chemiluminescence imaging analyzer (LAS4000mini; Fujifilm, Tokyo, Japan). Obtained images can preferably be analyzed with Multi-Gauge version 3.0 software (Fujifilm, Tokyo, Japan). […]

[3] = test system: mTOR-pS2481 associated with the immunoprecipitated mTORC2; assay: mTOR-pS2481 in mTORC2 immunoprecipitated with Sin1 antibody, HeLa cells; settings: Sin1 immunoprecipitation
Description: Immunoprecipitations can in particular be performed as described elsewhere. […] Immunoprecipitations were performed with 5 μg/ml antibody [antibody recognizing Sin1, Raptor, or rabbit IgG (all Bethyl)] and with magnetic Dynabeads Protein G (Invitrogen). Gradual knockdowns of Raptor or TSC2 can preferably be established by induction with 5 μg/ml doxycycline (Calbiochem, Merck, Darmstadt, Germany) for 0, 1, 2, or 3 days. Cells can be starved for 16 hours in HBSS and mTOR signaling was induced with DMEM (PAA, Pasching, Austria) supplemented with 100 nM insulin. […] Wortmannin or LY294002 can in particular be added 30 min prior to and during the stimulation with DMEM supplemented 100 nM insulin. […] Protein concentrations can preferably be measured (Protein Assay Dye Reagent Concentrate, Bio-Rad, Hercules, Calif., USA) according to manufacturer's protocol. […] Whole cell lysates can for example be analyzed using SDS-PAGE gels. […] HRP can for example be detected with the ECL Western Blotting Substrate or the SuperSignal West Femto reagent [Pierce Biotechnology (Thermo Scientific, Rockford, Ill. USA)], and the emitted light can in particular be detected and quantified with a chemiluminescence imaging analyzer (LAS4000mini; Fujifilm, Tokyo, Japan). Obtained images can preferably be analyzed with Multi-Gauge version 3.0 software (Fujifilm, Tokyo, Japan). […]

[4] = test system: p70-S6K-pT389 (mTORC1 readout) in HeLa cells; assay: p70-S6K-pT389 immunoblot of whole cell lysates, HeLa cells; settings: quantitation of 3 experiments; 200 nM PP242; Rapamycin; * P<0.05
Description: as §1, §2, §3

Akt-pS473 in HeLa cells = assay: Akt-pS473 immunoblot of whole cell lysates, HeLa cells; settings: HeLa cells starved, induced by aa/insulin for 30 and 50 min
Description: as §1, §2, §3

SMILES: CC(C)n1nc(-c2cc3cc(O)ccc3[nH]2)c2c(N)ncnc21 [PP242]
- amount of mTOR-pS2481 [1]: decreased
- mTOR-pS2481 abundance ([2]; HeLa cells, short-term treatment): reduced the abundance of mTORpS2481 in a dose-dependent manner
- mTOR-pS2481 compared to DMSO-treated control, significance (FIG. 1E) ([2]; quantitation of 3 experiments, 200 nM PP242, 100 nM Rapamycin, * P<0.05): significant
- mTOR-pS2481 associated with the immunoprecipitated mTORC2 [3]: significantly reduced
- p70-S6K-pT389 compared to DMSO-treated control, significance (FIG. 1D) [4]: significant

SMILES: O=c1cc(N2CCOCC2)oc2c(-c3ccccc3)cccc12 [LY294002]
- LY294002 concentrations at which mTORpS2481 was reduced ([2]; HeLa cells (FIG. 10C)): ≥ 1 µM

SMILES: COC[C@H]1OC(=O)c2coc3c2[C@@]1(C)C1=C(C3=O)[C@@H]2CCC(=O)[C@@]2(C)C[C@H]1OC(C)=O [Wortmannin]
- Wortmannin concentrations at which mTORpS2481 was inhibited ([2]; HeLa cells starved, induced by aa/insulin for 30 and 50 min): ≥ 20 nM
- Wortmannin concentration at which Akt-pS473 was already inhibited (Akt-pS473 in HeLa cells): 5 nM
- Wortmannin concentrations at which Akt-pS473 was strongly inhibited (Akt-pS473 in HeLa cells): ≥ 10 nM

Reference: patent publication US10910084B2, “Method for modelling, optimizing, parameterizing, testing and validating a dynamic network with network perturbations” (Albert-Ludwigs-Universität Freiburg, priority 2011, dated 2021)
